PubChem BioAssay AID330 (DTP/NCI, 2004)
Values joined by “and” are separate entries in the source; they are usually repeats but may differ in a detail not shown here. Equal entries are not always repeated. Inconclusive results and toxic doses are left out. The calls were made as follows: active = survival T/C of 150% or more; inactive = T/C below 125% in these data.

Tested on: P388 leukemia ip, CD2F1 mice, survival T/C
Experiment: NCI In Vivo Anticancer Drug Screen. Data for tumor model P388 Leukemia (intraperitoneal) in CD2F1 (CDF1) mice
Settings: endpoint: median survival time, higher = longer survival
In short: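 Mice carrying the transplanted tumor received test compound or vehicle. Survival was recorded in each group, and the value is the treated-group measurement divided by that of the vehicle-treated control group.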

[1] = dose: 50.0 mg/kg/injection, schedule: Q01DX009 (ip), vehicle: saline with Tween-80
[2] = dose: 100.0 mg/kg/injection, schedule: Q01DX009 (ip), vehicle: saline with Tween-80
[3] = dose: 200.0 mg/kg/injection, schedule: Q01DX009 (ip), vehicle: saline with Tween-80
[4] = dose: 60.0 mg/kg/injection, schedule: Q01DX005 (ip), vehicle: saline with Tween-80
[5] = dose: 120.0 mg/kg/injection, schedule: Q01DX005 (ip), vehicle: saline with Tween-80
[6] = dose: 240.0 mg/kg/injection, schedule: Q01DX005 (ip), vehicle: saline with Tween-80

Measured: T/C

C=C1[C@H]2C[C@H]2[C@]2(C)C[C@@H]3OC(=O)C(C)=C3C[C@@H]12
inactive: dose: 4.88 mg/kg/injection, schedule: Q01DX005 (ip), vehicle: Klucel (hydroxypropylcellulose) (HPC) 89 % of control | dose: 9.75 mg/kg/injection, schedule: Q01DX005 (ip), vehicle: Klucel (hydroxypropylcellulose) (HPC) 94 % of control | dose: 39.0 mg/kg/injection, schedule: Q01DX005 (ip), vehicle: Klucel (hydroxypropylcellulose) (HPC) 94 % of control | dose: 78.0 mg/kg/injection, schedule: Q01DX005 (ip), vehicle: Klucel (hydroxypropylcellulose) (HPC) 94 % of control

NC(=S)c1cn(C2OC(CO)C(O)C2O)c2ncnc(N)c12 (configuration not stated)
inactive: dose: 0.31 mg/kg/injection, schedule: Q01DX009 (ip), vehicle: saline 100 % of control | dose: 0.63 mg/kg/injection, schedule: Q01DX009 (ip), vehicle: saline 109 % of control | dose: 1.4 mg/kg/injection, schedule: Q01DX009 (ip), vehicle: saline with Tween-80 119 % of control | dose: 5.0 mg/kg/injection, schedule: Q01DX009 (ip), vehicle: saline with Tween-80 86 % of control

COC(=O)/C=C/C=C(c1ccccc1)c1ccccc1
inactive: [1] 99 % of control | [2] 104 % of control | [3] 106 % of control | dose: 400.0 mg/kg/injection, schedule: Q01DX009 (ip), vehicle: saline with Tween-80 113 % of control

COC(=O)CC1CC(CCO)=C(C)C1=O (configuration not stated)
inactive: dose: 60.0 mg/kg/injection, schedule: Q01DX005 (ip), vehicle: saline 101 % of control | dose: 120.0 mg/kg/injection, schedule: Q01DX005 (ip), vehicle: saline 99 % of control | dose: 240.0 mg/kg/injection, schedule: Q01DX005 (ip), vehicle: saline 100 % of control

Cn1c(=O)c2c(nc([N+](=O)[O-])n2C)n(C)c1=O
inactive: dose: 100.0 mg/kg/injection, schedule: Q04DX003 (ip), vehicle: saline 104 % of control | dose: 200.0 mg/kg/injection, schedule: Q04DX003 (ip), vehicle: saline 100 % of control

CC1=CCC(CC2CO2)C1(C)C (configuration not stated)
inactive: dose: 50.0 mg/kg/injection, schedule: Q01DX009 (ip), vehicle: saline 101 % of control | dose: 100.0 mg/kg/injection, schedule: Q01DX009 (ip), vehicle: saline 108 % of control

N#Cc1nc(CC(=O)c2ccccc2)c(CC(=O)c2ccccc2)nc1C#N
inactive: [4] 100 % of control | [5] 106 % of control and 94 % of control | [6] 100 % of control and 91 % of control

O=C1c2ccccc2CCC12OC2c1cccnc1 (configuration not stated)
inactive: dose: 25.0 mg/kg/injection, schedule: Q01DX009 (ip), vehicle: Klucel (hydroxypropylcellulose) (HPC) 100 % of control | dose: 50.0 mg/kg/injection, schedule: Q01DX009 (ip), vehicle: Klucel (hydroxypropylcellulose) (HPC) 100 % of control | dose: 100.0 mg/kg/injection, schedule: Q01DX009 (ip), vehicle: Klucel (hydroxypropylcellulose) (HPC) 104 % of control

CC1=CC(C/C(C)=C/COc2ccc3ccc(=O)oc3c2)OC1=O (configuration not stated)
inactive: dose: 12.5 mg/kg/injection, schedule: Q01DX005 (ip), vehicle: Klucel (hydroxypropylcellulose) (HPC) 87 % of control | dose: 25.0 mg/kg/injection, schedule: Q01DX005 (ip), vehicle: Klucel (hydroxypropylcellulose) (HPC) 90 % of control | dose: 50.0 mg/kg/injection, schedule: Q01DX005 (ip), vehicle: Klucel (hydroxypropylcellulose) (HPC) 97 % of control

OCC#CCOCC(O)CCl (configuration not stated)
inactive: dose: 12.5 mg/kg/injection, schedule: Q01DX009 (ip), vehicle: water 103 % of control | dose: 25.0 mg/kg/injection, schedule: Q01DX009 (ip), vehicle: water 108 % of control | dose: 50.0 mg/kg/injection, schedule: Q01DX009 (ip), vehicle: water 107 % of control | dose: 100.0 mg/kg/injection, schedule: Q01DX009 (ip), vehicle: water 98 % of control | dose: 200.0 mg/kg/injection, schedule: Q01DX009 (ip), vehicle: water 103 % of control

CC(C)(CC#N)c1cc(CC(C)(C)c2cc(CC(C)(C)c3cc(CC(C)(C)C4(C)OCCO4)no3)no2)no1
inactive: dose: 30.0 mg/kg/injection, schedule: Q01DX005 (ip), vehicle: saline with Tween-80 87 % of control | [4] 90 % of control and 91 % of control | [5] 86 % of control | [6] 87 % of control

CCOC(=O)C(C(=O)OCC)C1CCC2(C)CCC(=O)C=C2C1 (configuration not stated)
inactive: [1] 95 % of control | [2] 100 % of control | [3] 105 % of control

COc1cccc2ccc(-c3ccccc3)[s+]c12
inactive: dose: 60.0 mg/kg/injection, schedule: Q01DX005 (ip), vehicle: Klucel (hydroxypropylcellulose) (HPC) 97 % of control | dose: 120.0 mg/kg/injection, schedule: Q01DX005 (ip), vehicle: Klucel (hydroxypropylcellulose) (HPC) 98 % of control | dose: 240.0 mg/kg/injection, schedule: Q01DX005 (ip), vehicle: Klucel (hydroxypropylcellulose) (HPC) 104 % of control

COC(=O)CN(CCCl)P1(=O)OCCCN1CCCl (configuration not stated)
inactive: [4] 97 % of control | [5] 108 % of control

CN1CCC(O)(c2nccc3ccccc23)CC1
inactive: dose: 50.0 mg/kg/injection, schedule: Q01DX001 (ip), vehicle: Klucel (hydroxypropylcellulose) (HPC) 111 % of control | dose: 100.0 mg/kg/injection, schedule: Q01DX001 (ip), vehicle: Klucel (hydroxypropylcellulose) (HPC) 96 % of control
